Measured values reported in ChEMBL document CHEMBL4811216, “Chemotherapy for human schistosomiasis: how far have we come? What's new? Where do we go from here?” (RSC Med Chem, 2020).

What was measured:
Schistosoma mansoni [1] = assay: Antischistosomal activity against Schistosoma mansoni assessed as worm death at 10 uM incubated for 48 hrs relative to control; assay type: functional
Schistosoma mansoni [2] = assay: Antischistosomal activity against Schistosoma mansoni Schistosomula assessed as worm death at 10 uM incubated for 24 hrs relative to control; assay type: functional
Schistosoma haematobium [3] = assay: Antischistosomal activity against Schistosoma haematobium assessed as worm death at 10 uM incubated for 96 hrs relative to control; assay type: functional
Schistosoma mansoni [4] = assay: Antischistosomal activity against Schistosoma mansoni assessed as worm death at 10 uM incubated for 72 hrs relative to control; assay type: functional
Schistosoma japonicum [5] = assay: Antischistosomal activity against Schistosoma japonicum assessed as worm death at 10 uM incubated for 120 hrs relative to control; assay type: functional; conditions: for mortality at 10 µM: Schistosoma japonicum
[6] = biological target: T1, Thioredoxin glutathione reductase (Schistosoma mansoni, UniProt Q962Y6); assay: Inhibition of Schistosoma mansoni thioredoxin glutathione reductase incubated for 30 mins by DTNB assay
T1 sequence (Q962Y6 whole entry): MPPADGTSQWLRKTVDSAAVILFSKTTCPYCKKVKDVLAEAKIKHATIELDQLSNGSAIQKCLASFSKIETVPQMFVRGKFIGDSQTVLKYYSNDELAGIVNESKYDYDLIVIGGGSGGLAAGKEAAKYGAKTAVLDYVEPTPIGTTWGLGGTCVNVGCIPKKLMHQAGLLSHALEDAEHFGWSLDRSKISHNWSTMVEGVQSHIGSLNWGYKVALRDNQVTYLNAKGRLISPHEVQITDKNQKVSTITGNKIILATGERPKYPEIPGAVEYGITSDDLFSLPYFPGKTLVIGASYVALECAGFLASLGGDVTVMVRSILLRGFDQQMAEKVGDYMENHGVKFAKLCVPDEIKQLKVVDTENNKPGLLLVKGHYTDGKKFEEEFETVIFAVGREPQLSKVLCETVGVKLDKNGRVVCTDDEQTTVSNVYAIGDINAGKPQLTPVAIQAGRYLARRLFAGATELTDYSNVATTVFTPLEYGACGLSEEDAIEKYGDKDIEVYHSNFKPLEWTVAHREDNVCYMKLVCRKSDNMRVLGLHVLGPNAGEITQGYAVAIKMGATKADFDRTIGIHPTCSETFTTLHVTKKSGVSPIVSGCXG

Schistosoma mansoni [7] = assay: Antischistosomal activity against Schistosoma mansoni by confocal laser scanning microscopy; assay type: functional, organism-based
Schistosoma mansoni [8] = assay: Antischistosomal activity against Schistosoma mansoni assessed as worm death at 50 uM in presence of red blood cells relative to control; assay type: functional
[9] = Inhibition of NACE in Schistosoma mansoni using 1-N6-ethenonicotinamide adenine dinucleotide as substrate incubated for 30 mins by fluorometric assay
[10] = Inhibition of C-terminal His6-tagged Schistosoma mansoni NACE expressed in Pichia pastoris using 1-N6-ethenonicotinamide adenine dinucleotide as substrate by fluorometric assay
Schistosoma mansoni [11] = assay: Antischistosomal activity against adult Schistosoma mansoni assessed as worm death at 10 uM incubated for 120 hrs relative to control; assay type: functional
Schistosoma haematobium [12] = assay: Antischistosomal activity against Schistosoma haematobium assessed as worm death at 10 uM incubated for 144 hrs relative to control; assay type: functional
Schistosoma mansoni [13] = assay: Antischistosomal activity against juvenile Schistosoma mansoni assessed as worm death at 10 uM incubated for 120 hrs relative to control; assay type: functional
ATP-diphosphohydrolase 1 = biological target: T2, ATP-diphosphohydrolase 1 (Schistosoma mansoni, UniProt Q7YTA4); assay: Inhibition of Schistosoma mansoni ATPDase1 preincubated for 30 mins followed by addition of ATP/ADP by spectrophotometric method
T2 sequence (Q7YTA4 whole entry): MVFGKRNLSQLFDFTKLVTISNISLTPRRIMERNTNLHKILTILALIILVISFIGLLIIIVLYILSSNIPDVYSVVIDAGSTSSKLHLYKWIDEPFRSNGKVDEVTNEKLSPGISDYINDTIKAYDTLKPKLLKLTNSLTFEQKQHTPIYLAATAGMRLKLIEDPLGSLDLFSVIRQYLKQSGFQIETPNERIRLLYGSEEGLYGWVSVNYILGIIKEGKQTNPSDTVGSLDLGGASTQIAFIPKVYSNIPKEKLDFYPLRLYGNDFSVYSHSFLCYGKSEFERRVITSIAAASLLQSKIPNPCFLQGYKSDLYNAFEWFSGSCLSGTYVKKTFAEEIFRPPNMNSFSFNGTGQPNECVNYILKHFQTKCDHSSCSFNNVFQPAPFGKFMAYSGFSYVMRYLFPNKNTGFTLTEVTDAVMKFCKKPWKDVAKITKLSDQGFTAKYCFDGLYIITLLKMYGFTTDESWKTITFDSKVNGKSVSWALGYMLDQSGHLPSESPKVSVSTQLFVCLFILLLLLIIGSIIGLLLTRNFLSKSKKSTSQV

Schistosoma mansoni [14] = assay: Antischistosomal activity against Schistosoma mansoni BH assessed as extensive tegumental alteration at 25 uM measured after 24 hrs by light microscopy relative to control; assay type: functional
[15] = biological target: T3, ATP-diphosphohydrolase 1 (Schistosoma mansoni) (UniProt Q7YTA4); assay: Inhibition of Schistosoma mansoni ATPDase1 at 40 uM preincubated for 30 mins followed by addition of ATP/ADP by spectrophotometric method relative to control
T3 sequence (whole entry): T2 sequence (Q7YTA4 whole entry)

Schistosoma mansoni [16] = assay: Antischistosomal activity against Schistosoma mansoni BH assessed as reduction in motor activity at 25 uM measured after 24 hrs by light microscopy relative to control; assay type: functional; set-up: scale not given: the % may be the effect or the level left
Schistosoma mansoni [17] = assay: Antischistosomal activity against juvenile Schistosoma mansoni assessed as worm death at 10 uM incubated for 24 hrs relative to control; assay type: functional
Schistosoma haematobium [18] = assay: Antischistosomal activity against Schistosoma haematobium assessed as worm death at 10 uM incubated for 120 hrs relative to control; assay type: functional
Schistosoma mansoni [19] = assay: Antischistosomal activity against Schistosoma mansoni schistosomula incubated for 24 hrs by celltiter-glo reagent based assay; assay type: functional, organism-based
Schistosoma mansoni [20] = assay: Antischistosomal activity against adult Schistosoma mansoni Puerto-Rican incubated for 7 days by stereomicroscopy; assay type: functional; conditions: time 7 day
Schistosoma mansoni [21] = assay: Antischistosomal activity against juvenile Schistosoma mansoni assessed as worm death at 10 uM incubated for 72 hrs relative to control; assay type: functional
Schistosoma mansoni [22] = assay: Antischistosomal activity against adult Schistosoma mansoni assessed as worm death at 10 uM incubated for 144 hrs relative to control; assay type: functional
Schistosoma mansoni [23] = assay: Antischistosomal activity against juvenile Schistosoma mansoni assessed as worm death at 12.5 uM incubated for 120 hrs relative to control; assay type: functional
Schistosoma mansoni [24] = assay: Antischistosomal activity against Schistosoma mansoni Schistosomula assessed as worm death at 12.5 uM incubated for 120 hrs relative to control; assay type: functional
Schistosoma mansoni [25] = assay: Antischistosomal activity against adult Schistosoma mansoni assessed as worm death at 12.5 uM incubated for 120 hrs relative to control; assay type: functional
Schistosoma japonicum [26] = assay: Antischistosomal activity against adult Schistosoma japonicum assessed as worm death at 12.5 uM incubated for 120 hrs relative to control; assay type: functional
Schistosoma mansoni [27] = assay: Antischistosomal activity against Schistosoma mansoni BH assessed as worm death at 50 uM measured after 72 to 120 hrs by inverted optical microscopic method relative to control; assay type: functional; conditions: time 72-120 hrs

O=c1c(Cl)c(-n2cc(CO)nn2)cnn1-c1ccccc1
Activity (Schistosoma mansoni [1]): 100%
mortality at 10 µM (Schistosoma mansoni [2]): 100%
Activity (Schistosoma haematobium [3]): 100%
Activity (Schistosoma mansoni [4]): 100%
Activity (Schistosoma japonicum [5]): 70%
IC50 [6]: 2840 nM

COc1cc(/C=N/NC(=O)c2ccc(C(C)(C)C)cc2)ccc1O
IC50 (Schistosoma mansoni [7]): 47900 nM

CC1=C(Cc2ccc(C(F)(F)F)cc2)C(=O)c2cc(C)cnc2C1=O
Activity (Schistosoma mansoni [8]): 100%

O=C(Nc1nc(=O)c2ccccc2s1)c1ccco1
IC50 [9]: 20000 nM
IC50 [10]: 2200 nM

COC(=O)CS(=O)(=O)c1nnc(C(Cc2ccccc2)NC(=O)OC(C)(C)C)o1 (stereo not given)
mortality at 10 µM (Schistosoma mansoni [11]): 62%
mortality at 10 µM (Schistosoma mansoni [2]): 99%
mortality at 10 µM (Schistosoma haematobium [12]): 67%
mortality at 10 µM (Schistosoma mansoni [13]): 39%
mortality at 10 µM (Schistosoma japonicum [5]): 65%
IC50 [6]: 330 nM

COc1cc(O)cc(O)c1C(=O)/C=C/c1ccccc1 [CARDAMOMIN]
IC50 (ATP-diphosphohydrolase 1): 23500 nM
Activity (Schistosoma mansoni [14]): 100%
inhibition [15]: 82%
Activity (Schistosoma mansoni [16]): 100%

CCN(c1ccccc1)S(=O)(=O)c1ccc(NC(=O)c2nc(S(C)(=O)=O)ncc2Cl)cc1
mortality at 10 µM (Schistosoma mansoni [11]): 78%
mortality at 10 µM (Schistosoma mansoni [17]): 100%
mortality at 10 µM (Schistosoma mansoni [2]): 100%
mortality at 10 µM (Schistosoma japonicum [5]): 50%
mortality at 10 µM (Schistosoma haematobium [18]): 94%
IC50 [6]: 210 nM

COC1=C(Cc2ccc(OC)cc2)C(=O)C2=C(NCCS2(=O)=O)C1=O
IC50 (Schistosoma mansoni [19]): 13900 nM
Activity (Schistosoma mansoni [20]): 100%

O=[N+]([O-])c1ccc2c(c1)S(=O)(=O)C=C2
mortality at 10 µM (Schistosoma mansoni [21]): 100%
mortality at 10 µM (Schistosoma mansoni [2]): 100%
mortality at 10 µM (Schistosoma japonicum [5]): 69%
mortality at 10 µM (Schistosoma mansoni [22]): 76%
mortality at 10 µM (Schistosoma haematobium [18]): 85%
IC50 [6]: 2010 nM

CCOC(=O)C(C(=O)OCC)C1=C(Br)C2=NOC3c4ccccc4C(=O)C(=C1)C23 (stereo not given)
mortality at 12.5 µM (Schistosoma mansoni [23]): 100%
mortality at 12.5 µM (Schistosoma mansoni [24]): 96%
mortality at 12.5 µM (Schistosoma mansoni [25]): 28%
mortality at 12.5 µM (Schistosoma japonicum [26]): 100%
IC50 [6]: 140 nM

O=C1CS/C(=N\N=C/c2cccc3c2OCO3)N1c1ccc(Br)cc1
Activity (Schistosoma mansoni [27]): 83.3%
